The values that follow come from ChEMBL document CHEMBL1142530, “Chalcogenopyrylium dyes as inhibitors/modulators of P-glycoprotein in multidrug-resistant cells” (Bioorg Med Chem, 2008).

Data set [1] has as its target T1, MDR1 (ABCB1, P-glycoprotein) (Homo sapiens, UniProt P08183). The data set is described as follows: Inhibition of MDR1 overexpressed in MDCK cells at 25 uM relative to LSN335984. It counts as cell-based. The note with it: dog, MDCK-MDR1.
The test system of data set [2] is MDCK-II. Put plainly: Efflux ratio of permeability from basolateral to apical side to apical to basolateral side in MDCK2 cells over expressing MDR1 to permeability from basolateral to apical side to apical to basolateral side in MDCK2 cells over expressing MDR1 in presence of 25 uM LSN335984. The data set is classed as functional, Canis lupus familiaris.
For data set [3], the species on record is Mus musculus. Put plainly: Inhibition of verapamil-induced ATPase activity in lipid activated mouse P-glycoprotein mdr3 cys-less mutant assessed as ATP hydrolysis at 100 uM.
The nature of data set [4]: Inhibition of verapamil-induced ATPase activity in lipid activated mouse P-glycoprotein mdr3 cys-less mutant assessed as ATP hydrolysis per ug of protein.
The species entered for data set [5] is Mus musculus. Put plainly: Inhibition of verapamil-induced residual ATPase activity in lipid activated mouse P-glycoprotein mdr3 cys-less mutant assessed as ATP hydrolysis per ug of protein.
For data set [6], the system named is MDCK-II. The data set is described as follows: Apparent permeability from basolateral to apical side of MDCK2 cells over expressing MDR1 at 5 uM after 1 hr in presence of 25 uM LSN335984. The data set is classed as functional, cell-based. Conditions: Canis lupus familiaris.
The subject of data set [7] is MDCK-II. The data set is described as follows: Passive apparent permeability across MDCK2 cells over expressing MDR1 in presence of 25 uM LSN335984 after 1 hr. The note with it: Canis lupus familiaris. It counts as functional, cell-based.
Data set [8] relates to MDCK-II. Put plainly: Apparent permeability from basolateral to apical side of MDCK2 cells over expressing MDR1 after 1 hr. Conditions: Canis lupus familiaris. It counts as functional, cell-based.
For data set [9], the system named is MDCK-II. Put plainly: Apparent permeability from apical to basolateral side of MDCK2 cells over expressing MDR1 after 1 hr. It counts as functional, cell-based. The note with it: Canis lupus familiaris.
Data set [10] has as its system MDCK-II. The data set is described as follows: Apparent permeability from apical to basolateral side of MDCK2 cells over expressing MDR1 at 5 uM after 1 hr in presence of 25 uM LSN335984. Conditions: Canis lupus familiaris. It counts as functional, cell-based.
Data set [11] deals with MDCK-II. Put plainly: Apparent permeability from basolateral to apical side of MDCK2 cells over expressing MDR1 at 5 uM after 1 hr. It counts as functional, cell-based. The note with it: Canis lupus familiaris.
Data set [12] in a line: Octanol-water partition coefficient, log P after 5 hrs by shake flask method. It counts as physicochemical.
The subject of data set [13] is MDCK-II. The data set is described as follows: Enhancement of calcein-AM uptake in MDCK2 cells over expressing MDR1 after 20 mins. It counts as functional, cell-based. Conditions: Canis lupus familiaris.
Data set [14] has as its target T1, MDR1 (ABCB1, P-glycoprotein). Put plainly: Inhibition of MDR1 overexpressed in MDCK cells at 5 uM relative to LSN335984. It counts as cell-based. The note with it: dog.
In the next data set the test system is DNA. The data set is described as follows: Binding affinity to calf thymus DNA relative to control. It counts as nucleic-acid assay. Conditions: Bos taurus.
The nature of data set [15]: Binding affinity to P-glycoprotein in presence of Escherichia coli sham lipids.
The species named for data set [16] is Mus musculus. Put plainly: Inhibition of verapamil-induced specific ATPase activity in lipid activated mouse P-glycoprotein mdr3 cys-less mutant assessed as ATP hydrolysis per ug of protein at 100 uM.

Activity calls are given as the source filed them. The rule behind the calls is not given here. A value given as a limit tells only on which side of the number the result lay.

As usually defined, the inhibition is how much of the control response was suppressed. Read a high inhibition as strong suppression. The term IC50 denotes the point on the concentration scale where inhibition reaches its midpoint. Usually Papp stands for the rate of passage across a membrane or cell layer, normalised by area and donor concentration. What is called logP is a log measure of how a compound divides between an organic and an aqueous phase. Low values mean lower lipophilicity, high ones higher lipophilicity. In general, EC50 refers to the concentration at which the effect is half-maximal.

T1 sequence (P08183 whole entry): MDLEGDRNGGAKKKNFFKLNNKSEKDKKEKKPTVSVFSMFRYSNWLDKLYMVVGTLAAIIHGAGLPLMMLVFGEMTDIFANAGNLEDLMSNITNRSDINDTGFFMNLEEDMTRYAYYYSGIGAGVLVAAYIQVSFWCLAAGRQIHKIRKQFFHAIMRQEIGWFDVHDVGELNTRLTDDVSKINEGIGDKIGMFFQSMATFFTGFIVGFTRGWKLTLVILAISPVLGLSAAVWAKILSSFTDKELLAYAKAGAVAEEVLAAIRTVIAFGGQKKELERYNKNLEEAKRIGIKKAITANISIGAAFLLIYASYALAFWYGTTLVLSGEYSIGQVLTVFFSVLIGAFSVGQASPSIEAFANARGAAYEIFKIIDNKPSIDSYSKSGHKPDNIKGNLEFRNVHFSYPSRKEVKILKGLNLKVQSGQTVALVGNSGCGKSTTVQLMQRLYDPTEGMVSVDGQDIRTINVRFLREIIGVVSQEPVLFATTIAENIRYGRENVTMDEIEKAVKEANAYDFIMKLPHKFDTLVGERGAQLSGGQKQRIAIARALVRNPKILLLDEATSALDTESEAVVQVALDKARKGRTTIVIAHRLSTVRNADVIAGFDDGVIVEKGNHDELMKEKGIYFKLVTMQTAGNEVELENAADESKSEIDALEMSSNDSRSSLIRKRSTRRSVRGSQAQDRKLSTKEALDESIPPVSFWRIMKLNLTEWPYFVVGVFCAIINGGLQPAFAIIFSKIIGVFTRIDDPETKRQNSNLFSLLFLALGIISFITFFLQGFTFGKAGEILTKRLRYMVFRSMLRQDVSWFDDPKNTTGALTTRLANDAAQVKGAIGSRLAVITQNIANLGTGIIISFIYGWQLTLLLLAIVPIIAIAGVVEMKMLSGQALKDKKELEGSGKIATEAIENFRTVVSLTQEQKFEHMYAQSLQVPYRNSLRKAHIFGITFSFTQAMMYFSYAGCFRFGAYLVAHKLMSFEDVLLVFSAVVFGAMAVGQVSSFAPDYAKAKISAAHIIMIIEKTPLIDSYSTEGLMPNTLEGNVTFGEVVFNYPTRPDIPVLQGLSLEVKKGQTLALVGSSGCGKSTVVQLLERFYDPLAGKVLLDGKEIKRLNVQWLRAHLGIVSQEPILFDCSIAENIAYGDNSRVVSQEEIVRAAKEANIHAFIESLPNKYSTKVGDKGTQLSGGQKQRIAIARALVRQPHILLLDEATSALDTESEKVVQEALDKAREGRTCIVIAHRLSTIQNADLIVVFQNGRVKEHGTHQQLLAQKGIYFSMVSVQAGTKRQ

For `CN(C)c1ccc(-c2cc(-c3ccc(N)cc3)[se+]c(-c3ccc(N)cc3)c2)cc1.F[P-](F)(F)(F)(F)F`, in [1], 25 µM produced 29% inhibition. The Ratio in the data set with MDCK-II [2] was 17. For the same compound, the result in the data set listed under Mus musculus [3] was inactive. Moreover, the IC50 in data set [4] is over 100 µM. Moreover, in the data set filed under Mus musculus [5], the Activity amounted to 2.5 nmol/min. In addition, the permeability in the data set on MDCK-II [6] was 10%; in the data set with MDCK-II [8], 4.5 ×10⁻⁶ cm/s; in the data set on MDCK-II [9] it was 0.34 ×10⁻⁶ cm/s; with MDCK-II [10], 14%; in the data set with MDCK-II [11], 12%. For the same compound, in the data set on MDCK-II [7], the Papp was determined as 0.28 ×10⁻⁶ cm/s. In addition, in data set [12], the logP at 5 h was 2.2. Further, the EC50 in the data set with MDCK-II [13] was 25 µM. For the same compound, at 5 µM the inhibition in data set [14] was 6%.
For `Nc1ccc(-c2cc(-c3ccc(N4CCOCC4)cc3)cc(-c3ccc(N4CCOCC4)cc3)[s+]2)cc1`, the IC50 in data set [4] worked out at 11 µM. Also, the Activity in the data set filed under Mus musculus [5] was determined as 0.7 nmol/min. The logP at 5 h in data set [12] was 2.1.
As to `c1ccc(-c2cc(-c3ccc(N4CCOCC4)cc3)cc(-c3ccc(N4CCOCC4)cc3)[s+]2)cc1`, the IC50 in [4] worked out at 30 µM. Moreover, the Activity in the data set listed under Mus musculus [5] stood at 1 nmol/min. Further, the logP at 5 h in data set [12] was 2.1.
For the compound `c1ccc(-c2cc(-c3ccc(N4CCOCC4)cc3)[s+]c(-c3ccc(N4CCOCC4)cc3)c2)cc1`, the IC50 in data set [4] is 3.1 µM. Besides, the Activity in the data set filed under Mus musculus [5] stood at 1 nmol/min. In addition, the logP at 5 h in data set [12] worked out at 1.3.
The compound `Cc1cc(-c2ccc(N(C)C)cc2)cc(-c2ccc(N(C)C)cc2)[s+]1.[I-]` yielded an inhibition at 25 µM in data set [1] of 74%. Further, in the data set on MDCK-II [2], the Ratio amounted to 14. The IC50 in [4] is 15 µM. Also, the Activity in the data set filed under Mus musculus [5] was 0.5 nmol/min; in the data set with DNA, over 60; in the data set listed under Mus musculus [16], 0.48 nmol/min. Moreover, the permeability in the data set on MDCK-II [6] was 17%; in the data set with MDCK-II [8], 5.1 ×10⁻⁶ cm/s; in the data set with MDCK-II [9] it was 0.58 ×10⁻⁶ cm/s; in the data set on MDCK-II [10], 24%; in the data set with MDCK-II [11], 25%. Also, the Papp in the data set on MDCK-II [7] is 0.42 ×10⁻⁶ cm/s. Also, in data set [15], the Kapp was determined as 4.5 ×10⁻⁶ M. In addition, the logP at 5 h in data set [12] was determined as 0.6. Besides, the half-maximal effective concentration (EC50) in the data set with MDCK-II [13] is 16 µM. Moreover, in data set [14], the inhibition at 5 µM came to 13%.
As to `CN(C)c1ccc(-c2cc(-c3cccs3)cc(-c3ccc(N(C)C)cc3)[te+]2)cc1`, the IC50 in data set [4] stood at 7.9 µM. In addition, the Activity in the data set filed under Mus musculus [5] is 0.9 nmol/min. Moreover, in data set [12], the logP at 5 h is 2.2.
Consider `CCc1cc(-c2ccc(N(C)C)cc2)cc(-c2ccc(N(C)C)cc2)[s+]1`, for which, in data set [4], the IC50 was determined as 1 µM. Also, the Activity in the data set filed under Mus musculus [5] was 1.3 nmol/min; in the data set filed under Mus musculus [16], 0.74 nmol/min. In data set [12], this compound came in with a logP at 5 h of 0.1.
As for `CN(C)c1ccc(-c2cc(-c3ccc(N4CCOCC4)cc3)[se+]c(-c3ccc(N4CCOCC4)cc3)c2)cc1`, the IC50 in data set [4] turned out to be 55 µM. The Activity in the data set filed under Mus musculus [5] was 0.4 nmol/min. Also, the logP at 5 h in data set [12] turned out to be 2.3.
